What follows are compounds tested against T1, Recombinant Human Poly(ADP-Ribose)Polymerase (PARP), PARP-1 (Homo sapiens, UniProt P09874) (assay: PARP1 assay (SPA/FlashPlate, [3H]-NAD+ incorporation into biotinylated histone H1)). Settings: 1 nM PARP enzyme, 1.5 μM [3H]-NAD+, 200 nM biotinylated histone H1, 200 nM slDNA; Ki from inhibition curves at various substrate concentrations.
T1 construct: purchased Trevigen (Gaithersburg, Md.); host or cells: E. coli
Format: biochemical
Protocol: Nicotinamide[2,5′,8-3H]adenine dinucleotide and strepavidin SPA beads were obtained from Amersham Biosiences (UK). Recombinant Human Poly(ADP-Ribose)Polymerase (PARP), purified from E. coli and 6-Biotin-17-NAD^+, were obtained from Trevigen (Gaithersburg, Md.). NAD^+, histone, aminobenzamide, 3-aminobenzamide and Calf Thymus DNA (dcDNA) were obtained from Sigma (St. Louis, Mo.). Stem loop oligonucleotide containing MCAT sequence was obtained from Qiagen. The oligos were dissolved to 1 mM in annealing buffer containing 10 mM Tris HCl (pH 7.5), 1 mM EDTA, and 50 mM NaCl, incubated for 5 minutes at 95° C. and annealed at 45° C. for 45 minutes. Histone H1 (95% electrophoretically pure) was obtained from Roche (Indianapolis, Ind. Biotinylated histone H1 was prepared by treating the protein with Sulfo-NHS-LC-Biotin (Pierce Rockford, Ill.). The biotinylation reaction was conducted by slowly and intermittently adding 3 equivalents of 10 mM Sulfo-NHS-LC-Biotin to 100 μM Histone H1 in phosphate-buffered saline, pH 7.5, at 4° C. with gentle vortexing over 1 minute then incubation at 4° C. for 1 hour. Streptavidin coated (FlashPlate Plus) microplates were obtained from Perkin Elmer (Boston, Mass.).
PARP1 assay was conducted in PARP assay buffer containing 50 mM tris (pH 8.0), 1 mM DTT and 4 mM MgCl2. PARP reactions contained 1.5 μM [^3H]-NAD^+ (1.6 μCi/mmol), 200 nM biotinylated histone H1, 200 nM slDNA, and 1 nM PARP enzyme. Auto reactions utilizing SPA bead-based detection were carried out in 100 μL volumes in white 96 well plates.
Reactions were initiated by adding 50 μL of 2×NAD^+ substrate mixture to 50 μL of 2× enzyme mixture containing PARP and DNA. These reactions were terminated by the addition of 150 μL of 1.5 mM benzamide (1000-fold over its IC50). 170 μL of the stopped reaction mixtures were transferred to streptavidin Flash Plates, incubated for 1 hour and counted using a TopCount microplate scintillation counter. The Ki data (in nM) for representative compounds of this invention were determined from inhibition curves at various substrate concentrations and are shown in TABLE 1.

T1 sequence (P09874 whole entry): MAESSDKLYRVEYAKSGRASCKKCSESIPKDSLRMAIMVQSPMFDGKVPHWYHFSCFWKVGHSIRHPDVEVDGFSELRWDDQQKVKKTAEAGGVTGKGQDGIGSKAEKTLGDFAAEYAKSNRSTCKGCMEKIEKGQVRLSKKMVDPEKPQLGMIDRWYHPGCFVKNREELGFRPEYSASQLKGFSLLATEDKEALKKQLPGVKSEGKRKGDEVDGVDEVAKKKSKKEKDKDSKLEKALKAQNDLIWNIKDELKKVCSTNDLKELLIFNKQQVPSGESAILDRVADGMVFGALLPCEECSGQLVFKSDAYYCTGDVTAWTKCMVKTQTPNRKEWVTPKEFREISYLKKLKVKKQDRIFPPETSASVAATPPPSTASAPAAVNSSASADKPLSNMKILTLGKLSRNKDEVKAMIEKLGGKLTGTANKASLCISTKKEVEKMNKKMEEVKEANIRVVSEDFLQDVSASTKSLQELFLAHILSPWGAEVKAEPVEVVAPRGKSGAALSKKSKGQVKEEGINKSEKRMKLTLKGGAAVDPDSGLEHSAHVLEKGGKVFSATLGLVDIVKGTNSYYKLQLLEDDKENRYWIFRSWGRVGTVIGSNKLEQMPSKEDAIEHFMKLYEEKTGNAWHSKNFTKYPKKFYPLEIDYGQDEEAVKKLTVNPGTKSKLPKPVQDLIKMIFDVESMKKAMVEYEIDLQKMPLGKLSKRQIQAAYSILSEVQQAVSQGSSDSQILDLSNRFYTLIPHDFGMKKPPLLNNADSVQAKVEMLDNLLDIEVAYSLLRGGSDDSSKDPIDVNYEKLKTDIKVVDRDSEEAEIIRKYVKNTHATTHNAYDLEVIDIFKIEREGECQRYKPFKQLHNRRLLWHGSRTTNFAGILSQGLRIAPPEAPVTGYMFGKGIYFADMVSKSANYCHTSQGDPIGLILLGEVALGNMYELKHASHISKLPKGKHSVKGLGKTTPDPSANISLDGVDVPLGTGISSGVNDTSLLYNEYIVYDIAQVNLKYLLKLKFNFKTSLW

Row | SMILES | Ki
1 | NC(=O)c1cccc2[nH]c(-c3csc(C4CCNCC4)n3)nc12 [Example 5, 2-(2-piperidin-4-yl-1,3-thiazol-4-yl)-1H-benzimidazole-4-carboxamide] | 32 nM
2 | NC(=O)c1cccc2[nH]c(-c3ccc(-c4nnc(C(F)(F)F)o4)cn3)nc12 [Example 52, 2-{5-[5-(trifluoromethyl)-1,3,4-oxadiazol-2-yl]pyridin-2-yl}-1H-benzimidazole-4-carboxamide] | 14 nM
3 | CC(C)CN1CCCCC1c1ccc(-c2nc3c(C(N)=O)cccc3[nH]2)s1 (centres unmarked) [Example 33, 2-(5-(1-isobutylpiperidin-2-yl)thien-2-yl)-1H-benzimidazole-4-carboxamide] | 21 nM
4 | CCCN1CCC[C@@H]1c1ccc(-c2nc3c(C(N)=O)cccc3[nH]2)s1 [Example 19, 2-(5-((2R)-1-propylpyrrolidin-2-yl)thien-2-yl)-1H-benzimidazole-4-carboxamide] | 8 nM
5 | NC(=O)c1cccc2[nH]c(-c3ccc(C4CCCN4C4CCC4)nc3)nc12 (centres unmarked) [Example 46, 2-[6-(1-cyclobutylpyrrolidin-2-yl),pyridin-3-yl]-1H-benzimidazole-4-carboxamide] | 17 nM
6 | NC(=O)c1cccc2[nH]c(-c3ccc(C4CCCN4C4CCC4)s3)nc12 (centres unmarked) [Example 40, 2-(5-(1-cyclobutylpyrrolidin-2-yl)thien-2-yl)-1H-benzimidazole-4-carboxamide] | 10 nM
7 | NC(=O)c1cccc2[nH]c(-c3ccc(-c4cnccn4)s3)nc12 [Example 11, 2-(5-pyrazin-2-ylthien-2-yl)-1H-benzimidazole-4-carboxamide] | 2 nM
8 | NC(=O)c1cccc2[nH]c(-c3ccc([C@H]4CCCN4Cc4ccccn4)s3)nc12 [Example 25, 2-(5-((2R)-1-(pyridin-2-ylmethyl)pyrrolidin-2-yl)thien-2-yl)-1H-benzimidazole-4-carboxamide] | 10 nM
9 | NC(=O)c1cccc2[nH]c(-c3ccc(C4CCCN4C4CCOCC4)nc3)nc12 (centres unmarked) [Example 49, 2-[6-(1-tetrahydro-2H-pyran-4-ylpyrrolidin-2-yl),pyridin-3-yl]-1H-benzimidazole-4-carboxamide] | 17 nM
10 | CCCN1CCCC1c1ccc(-c2nc3c(C(N)=O)cccc3[nH]2)s1 (centres unmarked) [Example 37, 2-(5-(1-propylpyrrolidin-2-yl)thien-2-yl)-1H-benzimidazole-4-carboxamide] | 7 nM
11 | CC(C)CN1CCCC1c1ccc(-c2nc3c(C(N)=O)cccc3[nH]2)cn1 (centres unmarked) [Example 45, 2-[6-(1-isobutylpyrrolidin-2-yl),pyridin-3-yl]-1H-benzimidazole-4-carboxamide] | 11 nM
12 | NC(=O)c1cccc2[nH]c(-c3csc(-c4ccncc4)n3)nc12 [Example 2] | 11.8 nM
13 | NC(=O)c1cccc2[nH]c(-c3csc(-c4cccnc4)n3)nc12 [Example 1] | 14.5 nM
14 | NC(=O)c1cccc2[nH]c(-c3ccc(-c4ccc[nH]4)s3)nc12 [Example 15, 2-(5-(1H-pyrrol-2-yl)thien-2-yl)-1H-benzimidazole-4-carboxamide] | 5 nM
15 | CN1CCCC1c1ccc(-c2nc3c(C(N)=O)cccc3[nH]2)s1 (centres unmarked) [Example 35, 2-(5-(1-methylpyrrolidin-2-yl)thien-2-yl)-1H-benzimidazole-4-carboxamide] | 7 nM
16 | NC(=O)c1cccc2[nH]c(-c3ccc(C4CCCN4)nc3)nc12 (centres unmarked) [Example 43, 2-(6-pyrrolidin-2-ylpyridin-3-yl)-1H-benzimidazole-4-carboxamide] | 3 nM
17 | CC(C)N1CCC[C@@H]1c1ccc(-c2nc3c(C(N)=O)cccc3[nH]2)s1 [Example 18, 2-(5-((2R)-1-isopropylpyrrolidin-2-yl)thien-2-yl)-1H-benzimidazole-4-carboxamide] | 6 nM
18 | CC(C)N1CCC(c2nc(-c3nc4c(C(N)=O)cccc4[nH]3)cs2)CC1 [Example 7, 2-(2-(1-isopropylpiperidin-4-yl)-1,3-thiazol-4-yl)-1H-benzimidazole-4-carboxamide] | 61 nM
19 | CN1CCC(c2nc(-c3nc4c(C(N)=O)cccc4[nH]3)cs2)CC1 [Example 6, 2-(2-(1-methylpiperidin-4-yl)-1,3-thiazol-4-yl)-1H-benzimidazole-4-carboxamide] | 45 nM

Row | SMILES | Ki
20 | NC(=O)c1cccc2[nH]c(-c3ccc(-c4ncccn4)s3)nc12 [Example 12, 2-(5-pyrimidin-2-ylthien-2-yl)-1H-benzimidazole-4-carboxamide] | 9 nM
21 | NC(=O)c1cccc2[nH]c(-c3ccc(C4CCCN4)s3)nc12 (centres unmarked) [Example 34, 2-(5-pyrrolidin-2-ylthien-2-yl)-1H-benzimidazole-4-carboxamide] | 7 nM
22 | Cc1nc(-c2cnccn2)sc1-c1nc2c(C(N)=O)cccc2[nH]1 [Example 3, 2-(4-methyl-2-pyrazin-2-yl-1,3-thiazol-5-yl)-H-benzimidazole-4-carboxamide] | 28 nM
23 | NC(=O)c1cccc2[nH]c(-c3ccc(-c4cnco4)nc3)nc12 [Example 50, 2-[6-(1,3-oxazol-5-yl)pyridin-3-yl]-1H-benzimidazole-4-carboxamide] | 0.8 nM
24 | NC(=O)c1cccc2[nH]c(-c3ccc([C@H]4CCCN4C4CCCCC4)s3)nc12 [Example 23, 2-(5-((2R)-1-cyclohexylpyrrolidin-2-yl)thien-2-yl)-1H-benzimidazole-4-carboxamide] | 8 nM
25 | NC(=O)c1cccc2[nH]c(-c3ccc(C4CCCCN4C4CCC4)s3)nc12 (centres unmarked) [Example 32, 2-(5-(1-cyclobutylpiperidin-2-yl)thien-2-yl)-1H-benzimidazole-4-carboxamide] | 23 nM
26 | NC(=O)c1cccc2[nH]c(-c3ccc([C@H]4CCCN4CC4CC4)s3)nc12 [Example 20, 2-(5-((2R)-1-(cyclopropylmethyl)pyrrolidin-2-yl)thien-2-yl)-1H-benzimidazole-4-carboxamide] | 5 nM
27 | NC(=O)c1cccc2[nH]c(-c3ccc(-c4cccnc4)s3)nc12 [Example 13, 2-(5-pyridin-3-ylthien-2-yl)-1H-benzimidazole-4-carboxamide] | 2.4 nM
28 | NC(=O)c1cccc2[nH]c(-c3ccc(C4CCCCN4CC4CC4)s3)nc12 (centres unmarked) [Example 31, 2-(5-(1-(cyclopropylmethyl)piperidin-2-yl)thien-2-yl)-1H-benzimidazole-4-carboxamide] | 11 nM
29 | CN1CCCCC1c1ccc(-c2nc3c(C(N)=O)cccc3[nH]2)s1 (centres unmarked) [Example 29, 2-(5-(1-methylpiperidin-2-yl)thien-2-yl)-1H-benzimidazole-4-carboxamide] | 14 nM
30 | NC(=O)c1cccc2[nH]c(-c3ccc([C@H]4CCCN4C4CCC4)s3)nc12 [Example 21, 2-(5-((2R)-1-cyclobutylpyrrolidin-2-yl)thien-2-yl)-1H-benzimidazole-4-carboxamide] | 4 nM
31 | NC(=O)c1cccc2[nH]c(-c3ccc(-c4ccccn4)s3)nc12 [Example 10, 2-(5-pyridin-2-ylthien-2-yl)-1H-benzimidazole-4-carboxamide] | 3.1 nM
32 | NC(=O)c1cccc2[nH]c(-c3ccc([C@H]4CCCN4)s3)nc12 [Example 16, 2-(5-((2R)-pyrrolidin-2-yl)thien-2-yl)-1H-benzimidazole-4-carboxamide] | 6 nM
33 | CCCN1CCCCC1c1ccc(-c2nc3c(C(N)=O)cccc3[nH]2)s1 (centres unmarked) [Example 30, 2-(5-(1-propylpiperidin-2-yl)thien-2-yl)-1H-benzimidazole-4-carboxamide] | 16 nM
34 | NC(=O)c1cccc2[nH]c(-c3ccc(C4CCCN4CC4CC4)s3)nc12 (centres unmarked) [Example 38, 2-(5-(1-(cyclopropylmethyl)pyrrolidin-2-yl)thien-2-yl)-1H-benzimidazole-4-carboxamide] | 6 nM
35 | NC(=O)c1cccc2[nH]c(-c3ccc(C4CCCN4C4CCCCC4)nc3)nc12 (centres unmarked) [Example 48, 2-[6-(1-cyclohexylpyrrolidin-2-yl),pyridin-3-yl]-1H-benzimidazole-4-carboxamide] | 14 nM
36 | NC(=O)c1cccc2[nH]c(-c3ccc(C4CCCCN4)s3)nc12 (centres unmarked) [Example 28, 2-(5-piperidin-2-ylthien-2-yl)-1H-benzimidazole-4-carboxamide] | 7 nM
37 | NC(=O)c1cccc2[nH]c(-c3ccc(C4CCCN4C4CCCCC4)s3)nc12 (centres unmarked) [Example 42, 2-(5-(1-cyclohexylpyrrolidin-2-yl)thien-2-yl)-1H-benzimidazole-4-carboxamide] | 12 nM
38 | NC(=O)c1cccc2[nH]c(-c3csc(C4CCN(C5CCC5)CC4)n3)nc12 [Example 9, 2-(2-(1-cyclobutylpiperidin-4-yl)-1,3-thiazol-4-yl)-1H-benzimidazole-4-carboxamide] | 44 nM

Reference: patent US8067613B2 (Abbott Laboratories, priority 2007, dated 2011)
